In brackets after ≈: the same amount, converted by molar mass.
Assays:
hCA II = biological target: T1, hCA II (Homo sapiens, UniProt P00918); assay: stopped-flow CO2 hydration assay; assay type: biochemical
T1 construct: gene CA2; recombinant
Outline: (§1)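 Recombinant human carbonic anhydrase CO2 hydration was followed by stopped-flow for 10–100 s with 0.2 mM phenol red (557 nm), 20 mM Hepes pH 7.5, 20 mM Na2SO4 and 1.7–17 mM CO2. Enzyme and inhibitor (diluted to 0.005 nM in buffer) were preincubated 15 min at room temperature. Initial rates used at least six traces, with uncatalysed rates subtracted. Ki was fitted by non-linear least squares with Cheng–Prusoff equation, averaged over three or more determinations.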

hCA I [1] = biological target: T2, hCA I (Homo sapiens, UniProt P00915); assay: stopped-flow CO2 hydration assay; assay type: biochemical
T2 construct: gene CA1; recombinant
T2 sequence (P00915 2-261): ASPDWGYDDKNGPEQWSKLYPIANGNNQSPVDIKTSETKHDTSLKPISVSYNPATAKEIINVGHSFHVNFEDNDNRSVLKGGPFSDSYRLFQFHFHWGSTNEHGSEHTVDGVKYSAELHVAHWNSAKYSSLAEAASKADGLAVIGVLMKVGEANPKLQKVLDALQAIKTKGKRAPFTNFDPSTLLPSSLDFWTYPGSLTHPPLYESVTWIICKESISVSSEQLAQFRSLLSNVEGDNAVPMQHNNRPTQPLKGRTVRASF
Outline: as §1

hCA VII = biological target: T3, hCA VII (Homo sapiens, UniProt P43166); assay: stopped-flow CO2 hydration assay; assay type: biochemical
T3 construct: gene CA7; recombinant
T3 sequence (P43166 whole entry): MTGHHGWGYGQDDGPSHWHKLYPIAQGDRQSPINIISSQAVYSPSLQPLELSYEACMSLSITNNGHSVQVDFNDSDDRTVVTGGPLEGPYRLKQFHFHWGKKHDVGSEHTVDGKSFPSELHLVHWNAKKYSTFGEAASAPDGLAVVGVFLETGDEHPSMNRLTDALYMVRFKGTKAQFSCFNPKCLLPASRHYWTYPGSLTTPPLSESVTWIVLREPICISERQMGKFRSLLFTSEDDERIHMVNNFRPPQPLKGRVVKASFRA
Outline: as §1

hCA IX = biological target: T4, hCA IX (Homo sapiens, UniProt Q16790); assay: stopped-flow CO2 hydration assay; assay type: biochemical
T4 construct: gene CA9; recombinant
Outline: as §1

[2] = tested on: T5, E. faecalis ATCC 29212 (EF); assay: microbe, parasite or virus in culture; design: broth microdilution MIC in BHI, Alamar Blue read-out, 37 °C; conditions: Enterococcus faecalis, ATCC29212, 24 h
T5 construct: ATCC 29212
Description: (§2) The inhibition activity against enterococci was evaluated by the microtitration broth method according to the Clinical and Laboratory Standards Institute with some modifications. The compounds were dissolved in DMSO and serially diluted in Brain Hearth Infusion (BHI) to reach concentrations 256–2 µg/mL. […] The experiment was repeated at least three times. All the investigated compounds were tested on their anti-staphylococcal activity against three clinical isolates of methicillin-resistant Staphylococcus aureus (MRSA) and S. aureus ATCC 29213 as the reference and quality control strain.

[3] = tested on: T6, Enterococcus faecalis VRE 342 B; assay: organism not typed; design: broth microdilution MIC in BHI, Alamar Blue read-out, 37 °C; conditions: 24 h
T6 construct: VRE 342 B (vanA clinical isolate)
Description: as §2

[4] = tested on: T7, Enterococcus faecalis VRE 368; assay: organism not typed; design: broth microdilution MIC in BHI, Alamar Blue read-out, 37 °C; conditions: 24 h
T7 construct: VRE 368 (vanA clinical isolate)
Description: as §2

[5] = tested on: T8, Enterococcus faecalis VRE 725 B; assay: organism not typed; design: broth microdilution MIC in BHI, Alamar Blue read-out, 37 °C; conditions: 24 h
T8 construct: VRE 725B (vanA clinical isolate)
Description: as §2, with “strain. […] All the compounds were tested against Enterococcus faecalis ATCC 29212 as the reference strain and three isolates from American crows of vanA-carrying vancomycin-resistant E. faecalis (VRE), and the activities, expressed as minimum inhibitory concentrations (MICs), are listed in Table 3.” for “strain.”

hCA XII = biological target: T9, hCA XII (Homo sapiens, UniProt O43570); assay: stopped-flow CO2 hydration assay; assay type: biochemical
T9 construct: gene CA12; recombinant
T9 sequence (O43570 25-354): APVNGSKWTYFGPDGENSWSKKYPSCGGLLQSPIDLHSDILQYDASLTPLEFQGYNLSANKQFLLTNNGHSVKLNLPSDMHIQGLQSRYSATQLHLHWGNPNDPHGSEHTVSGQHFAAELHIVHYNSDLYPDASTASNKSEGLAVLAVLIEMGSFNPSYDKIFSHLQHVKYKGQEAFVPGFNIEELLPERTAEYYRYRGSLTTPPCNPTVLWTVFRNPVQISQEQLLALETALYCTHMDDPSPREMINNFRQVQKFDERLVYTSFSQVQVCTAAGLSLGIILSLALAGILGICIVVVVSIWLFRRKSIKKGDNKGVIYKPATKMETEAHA
Outline: as §1

hCA I [6] = biological target: T2, hCA I; assay: biochemical; design: stopped-flow CO2 hydration assay, phenol red indicator 557 nm, recombinant human CA, 15 min preincubation
Description: AnSX.18MV-R Applied Photophysics stopped-flow instrument (Applied Photophysics, Leatherhead, UK) has been used for assaying the CA catalyzed CO2 hydration activity. Phenol red (at a concentration of 0.2 mM) has been used as an indicator, working at the absorbance maximum of 557 nm, with 20 mM Hepes (pH 7.5) as a buffer and 20 mM Na2SO4 (for maintaining constant the ionic strength), following the CA-catalyzed CO2 hydration reaction for a period of 10–100 s. The CO2 concentrations ranged from 1.7 to 17 mM for the determination of the kinetic parameters and inhibition constants. For each inhibitor, at least six traces of the initial 5–10% of the reaction were used for determining the initial velocity. The uncatalyzed rates were determined in the same manner and were subtracted from the total observed rates. Stock solutions of the inhibitor (0.1 mM) were prepared in distilled-deionized water, and dilutions up to 0.005 nM were done thereafter with the assay buffer. Inhibitor and enzyme solutions were preincubated together for 15 min at room temperature prior to assay in order to allow for the formation of the E–I complex. The inhibition constants were obtained by non-linear least-squares methods using PRISM 3 and the ChengPrusoff equation, as reported earlier, and represent the mean from at least three different determinations. All CA isoforms were recombinant ones and were prepared as reported earlier. Errors in the range of 5–10% of the reported value (Mean from three different assays, by stopped-flow technique). The presence of aminobenzenesulfonamide structural moiety in the structure of target compounds 1–44 can cause inhibition activity in these compounds against human carbonic anhydrases. The inhibition of physiologically relevant hCA I and hCA II can lead to various undesirable side effects. […] Compounds 1–44 were evaluated as potential inhibitors of hCA I, hCA II, hCA VII, hCA IX, and hCA XII. The inhibition activities against individual hCAs were determined by methodology based on stopped-flow assay. […]

SMILES | Ki (hCA II) [nM] | Ki (hCA I [1]) [nM] | Ki (hCA VII) [nM] | Ki (hCA IX) [nM] | MIC [2] [µM] | MIC [3] [µM] | MIC [4] [µM] | MIC [5] [µM] | Ki (hCA XII) [nM] | Ki (hCA I [6]) [nM]
NS(=O)(=O)c1ccc(Nc2nc(Cl)nc(NCCCO)n2)cc1 [compound 1, 1] | 44.8 | 26.8 | 128 | 229 | – | – | – | – | – | –
NS(=O)(=O)c1ccc(CNc2nc(NCCCO)nc(Nc3ccc(C(=O)/C=C/c4ccccc4)cc3)n2)cc1 [compound 13, 13] | 277 | 1960 | 95.7 | 4630 | 228 (≈ 128 µg/mL) | 228 (≈ 128 µg/mL) | 114 (≈ 63.8 µg/mL) | 228 (≈ 128 µg/mL) | – | –
NS(=O)(=O)c1ccc(CNc2nc(NCCCO)nc(Nc3ccc(C(=O)/C=C/c4ccccc4O)cc3)n2)cc1 [compound 14, 14] | 35.4 | 5400 | 180 | 623 | 111 (≈ 63.9 µg/mL) | 111 (≈ 63.9 µg/mL) | 111 (≈ 63.9 µg/mL) | > 444 | – | –
NS(=O)(=O)c1ccc(CNc2nc(NCCCO)nc(Nc3ccc(C(=O)/C=C/c4ccc(O)cc4)cc3)n2)cc1 [compound 16, (E)-4-[({4-({4-[3-(4-Hydroxyphenyl)acryloyl]phenyl}amino)-6-[(3-hydroxypropyl)amino]-1,3,5-triazin-2-yl}amino)methyl]benzenesulfonamide] | 36 | 800 | 201 | 161 | > 444 | > 444 | > 444 | > 444 | – | –
NS(=O)(=O)c1ccc(CCNc2nc(Cl)nc(NCC(O)CO)n2)cc1 (stereo not drawn) [compound 19, 19] | – | – | 40.7 | – | > 635 | > 635 | > 635 | > 635 | – | –
NS(=O)(=O)c1ccc(CCNc2nc(NCCCO)nc(Nc3ccc(C(=O)/C=C/c4ccccc4O)cc3)n2)cc1 [compound 22, 22] | 939 | 7700 | 283 | > 10000 | 108 (≈ 63.7 µg/mL) | 108 (≈ 63.7 µg/mL) | 108 (≈ 63.7 µg/mL) | 108 (≈ 63.7 µg/mL) | – | –
NS(=O)(=O)c1ccc(CCNc2nc(Nc3ccc(O)cc3)nc(Nc3ccc(C(=O)/C=C/c4ccccc4O)cc3)n2)cc1 [compound 24, 24] | 63.8 | 5010 | 281 | 227 | 51.3 (≈ 32 µg/mL) | 51.3 (≈ 32 µg/mL) | 51.3 (≈ 32 µg/mL) | 102 (≈ 63.6 µg/mL) | – | –
NS(=O)(=O)c1ccc(CCNc2nc(NCCCO)nc(Nc3ccc(C(=O)/C=C/c4cccc(O)c4)cc3)n2)cc1 [compound 25, (E)-4-[2-({4-({4-[3-(3-Hydroxyphenyl)acryloyl]phenyl}amino)-6-[(3-hydroxypropyl)amino]-1,3,5-triazin-2-yl}amino)ethyl]benzenesulfonamide] | 4130 | 7490 | 186 | > 10000 | 27.1 (≈ 16 µg/mL) | 27.1 (≈ 16 µg/mL) | 27.1 (≈ 16 µg/mL) | 108 (≈ 63.7 µg/mL) | – | –
NS(=O)(=O)c1ccc(CCNc2nc(Nc3ccc(O)cc3)nc(Nc3ccc(C(=O)/C=C/c4cccc(O)c4)cc3)n2)cc1 [compound 26, (E)-4-[2-({4-({4-[3-(3-Hydroxyphenyl)acryloyl]phenyl}amino)-6-[(4-hydroxyphenyl)amino]-1,3,5-triazin-2-yl}amino)ethyl]benzenesulfonamide] | 1340 | 6630 | 42.1 | > 10000 | 51.3 (≈ 32 µg/mL) | 51.3 (≈ 32 µg/mL) | 25.6 (≈ 16 µg/mL) | 51.3 (≈ 32 µg/mL) | – | –
NS(=O)(=O)c1ccc(CCNc2nc(NCCCO)nc(Nc3ccc(C(=O)/C=C/c4ccc(O)cc4)cc3)n2)cc1 [compound 27, (E)-4-[2-({4-({4-[3-(4-Hydroxyphenyl)akryloyl]phenyl}amino)-6-[(3-hydroxypropyl)amino]-1,3,5-triazin-2-yl}amino)ethyl]benzenesulfonamide] | 28.8 | 8960 | 459 | > 10000 | > 434 | > 434 | > 434 | 434 (≈ 256 µg/mL) | – | –
NS(=O)(=O)c1ccc(CCNc2nc(Nc3ccc(O)cc3)nc(Nc3ccc(C(=O)/C=C/c4ccc(O)cc4)cc3)n2)cc1 [compound 29, (E)-4-[2-({4-({4-[3-(4-Hydroxyphenyl)acryloyl]phenyl}amino)-6-[(4-hydroxyphenyl)amino]-1,3,5-triazin-2-yl}amino)ethyl]benzenesulfonamide] | 730 | 5810 | 88.6 | > 10000 | 25.6 (≈ 16 µg/mL) | 25.6 (≈ 16 µg/mL) | 102 (≈ 63.6 µg/mL) | 51.3 (≈ 32 µg/mL) | – | –
NS(=O)(=O)c1ccc(CCNc2nc(NCCc3ccc(S(N)(=O)=O)cc3)nc(Nc3ccc(/C=C/c4cccc(O)c4)cc3)n2)cc1 [compound 41, (E)-4,4’-{[(6-{[4-(3-Hydroxystyryl)phenyl]amino}-1,3,5-triazin-2,4-diyl)bis(azandiyl)]bis(ethan-2,1-diyl)} benzenesulfonamide] | 41.4 | – | – | 31.1 | 372 (≈ 255 µg/mL) | > 372 | > 372 | > 372 | 62.2 | 608
NS(=O)(=O)c1ccc(CCNc2nc(Nc3ccc(O)cc3)nc(Nc3ccc(/C=C/c4ccc(O)cc4)cc3)n2)cc1 [compound 43, 43] | 4840 | – | – | 25.7 | 429 (≈ 256 µg/mL) | > 429 | > 429 | > 429 | 702 | 4060
NS(=O)(=O)c1ccc(CCNc2nc(NCc3ccc(S(N)(=O)=O)cc3)nc(Nc3ccc(/C=C/c4ccc(O)cc4)cc3)n2)cc1 [compound 44, (E)-4-{2-[(4-{[4-(4-Hydroxystyryl)phenyl]amino}-6-[(4-sulfamoylbenzyl)amino]-1,3,5-triazin-2-yl)amino]ethyl}benzenesulfonamide] | 252 | – | – | 249 | 380 (≈ 256 µg/mL) | 190 (≈ 128 µg/mL) | > 380 | 380 (≈ 256 µg/mL) | 10 | 859

From PMC8745223, “Novel 1,3,5-Triazinyl Aminobenzenesulfonamides Incorporating Aminoalcohol, Aminochalcone and Aminostilbene Structural Motifs as Potent Anti-VRE Agents, and Carbonic Anhydrases I, II, VII, IX, and XII Inhibitors” (International Journal of Molecular Sciences, 2021)
